Data on 4 compounds can be found in patent US10106538B2, “Inhibitors of protein kinases” (PRINCETON DRUG DISCOVERY INC, priority 2015, dated 2018).

The target of test [1] is T1, PDGFRα(D842V) (Homo sapiens, UniProt P16234, D842V).
T1 construct: purchased Carna Biosciences
Kind of test: Off-chip Mobility Shift Assay (MSA) kinase inhibition. The conditions noted are these: inhibitor concentration 0.01 μM. Format: biochemical. The procedure:
(§1) Off-chip Mobility Shift Assay (MSA) by Cama Biosciences, Inc (Natick, Mass.) a used for measuring the kinase activity and inhibition. • 1) The 5 μL of x4 compound solution, 5 μL of x4 Substrate/ATP/Metal solution, and 10 μL of x2 kinase solution were prepared with assay buffer (20 mM HEPES, 0.01% Triton X100, 2 mM DTT, pH 7.5) and mixed and incubated in a well of polypropylene 384 well microplate for 1 or 5 hour(s)* at room temperature. (*; depending on kinase) • 2) 70 μL of Termination Buffer (QuickScout Screening Assist A; Cama Biosciences) was added to the welt • 3) The reaction mixture was applied to LabChip system (Perkin Elmer), and the product and substrate peptide peaks were separated and quantitated. • 4) The kinase reaction was evaluated by the product ratio calculated from peak heights of product (P) and substrate (S) peptides (P/(P+S)). • 5) The reaction conditions were followed according to assay protocols of Ca n Biosciences, Inc (BMA 3F, 1-5-5 Minatojima-Minamimachi, Chuo-ku, Kobe 650-0047, Japan; www.carnabio.com). • 6 Data analysis: The readout value of reaction control (complete reaction mixture) was set as a 0% inhibition, and the readout value of background (Enzyme (−)) was set as a 100% inhibition, then the percent inhibition of each test solution was calculated, […]

Test [2] addresses T2, PDGFRα(T674I) (Homo sapiens, UniProt P16234, T674I).
T2 construct: purchased Carna Biosciences
Described as above. It counts as biochemical. The conditions noted are these: inhibitor concentration 0.01 μM. The procedure:
as §1

The target of test [3] is T3, PDGFRα(V561D) (Homo sapiens, UniProt P16234, V561D).
T3 construct: purchased Carna Biosciences
The description is as above. It counts as biochemical. The conditions noted are these: inhibitor concentration 0.01 μM. The procedure: as §1

In test [4] the target is T4, SRC (Homo sapiens, UniProt P12931).
T4 construct: purchased Carna Biosciences
Described as above. Format: biochemical. Particulars: inhibitor concentration 0.01 μM. The procedure:
(§2) Off-chip Mobility Shift Assay (MSA) by Cama Biosciences, Inc (Natick, Mass.) a used for measuring the kinase activity and inhibition. • 1) The 5 μL of x4 compound solution, 5 μL of x4 Substrate/ATP/Metal solution, and 10 μL of x2 kinase solution were prepared with assay buffer (20 mM HEPES, 0.01% Triton X100, 2 mM DTT, pH 7.5) and mixed and incubated in a well of polypropylene 384 well microplate for 1 or 5 hour(s)* at room temperature.

The target in test [5] is T5, KIT(D816V) (Homo sapiens, UniProt P10721, D816V).
T5 construct: purchased Carna Biosciences
The description is as above. Format: biochemical. Particulars: inhibitor concentration 0.01 μM. As for the experimental part: as §2

Test [6] has as its target T6, SRM (Homo sapiens, UniProt Q9H3Y6).
T6 construct: purchased Carna Biosciences
The test is described as above. Format: biochemical. Particulars: inhibitor concentration 0.01 μM. The procedure:
as §2

In test [7] the target is T7, JAK1 (Homo sapiens, UniProt P23458).
T7 construct: purchased Carna Biosciences
The test is described as above. Format: biochemical. The conditions noted are these: inhibitor concentration 0.01 μM. As for the experimental part: as §2

Test [8] concerns the target T8, KIT(V560G) (Homo sapiens, UniProt P10721, V560G).
T8 construct: purchased Carna Biosciences
Described as above. Format: biochemical. The conditions noted are these: inhibitor concentration 0.01 μM. As for the experimental part: as §2

Test [9] concerns the target T9, KIT(T670I) (Homo sapiens, UniProt P10721, T670I).
T9 construct: purchased Carna Biosciences
The test is described as above. Particulars: inhibitor concentration 0.01 μM. Format: biochemical. As for the experimental part:
as §2

Test [10] concerns the target T10, JAK2 (Homo sapiens, UniProt O60674).
T10 construct: purchased Carna Biosciences
Described as above. Format: biochemical. Particulars: inhibitor concentration 0.01 μM. The procedure: as §2

Test [11] deals with T11, BRK (Homo sapiens, UniProt Q13882).
T11 construct: purchased Carna Biosciences
The description is as above. Format: biochemical. The conditions noted are these: inhibitor concentration 0.01 μM. As for the experimental part:
as §2

Test [12] concerns the target T12, RAF1 (Homo sapiens, UniProt P04049).
T12 construct: purchased Carna Biosciences
The test is described as above. Particulars: inhibitor concentration 0.01 μM. It counts as biochemical. As for the experimental part: as §2

The target of test [13] is T13, BRAF(V600E) (Homo sapiens, UniProt P15056, V600E).
T13 construct: purchased Carna Biosciences
Described as above. Format: biochemical. The conditions noted are these: inhibitor concentration 0.01 μM. The procedure:
as §2

Test [14] has as its target T14, LCK (Homo sapiens, UniProt P06239).
T14 construct: purchased Carna Biosciences
The description is as above. It counts as biochemical. Particulars: inhibitor concentration 0.01 μM. The procedure:
as §2

The target of test [15] is T15, KIT (Homo sapiens, UniProt P10721).
T15 construct: purchased Carna Biosciences
The test is described as above. It counts as biochemical. The conditions noted are these: inhibitor concentration 0.01 μM. As for the experimental part: as §2

In test [16] the target is T16, BRAF (Homo sapiens, UniProt P15056).
T16 construct: purchased Carna Biosciences
Described as above. It counts as biochemical. Particulars: inhibitor concentration 0.01 μM. As for the experimental part:
as §2

Test [17] concerns the target T17, FGR (Homo sapiens, UniProt P09769).
T17 construct: purchased Carna Biosciences
Described as above. It counts as biochemical. The conditions noted are these: inhibitor concentration 0.01 μM. The procedure:
as §2

Test [18] has as its target T18, JAK3 (Homo sapiens, UniProt P52333).
T18 construct: purchased Carna Biosciences
T18 sequence (P52333 1-1124): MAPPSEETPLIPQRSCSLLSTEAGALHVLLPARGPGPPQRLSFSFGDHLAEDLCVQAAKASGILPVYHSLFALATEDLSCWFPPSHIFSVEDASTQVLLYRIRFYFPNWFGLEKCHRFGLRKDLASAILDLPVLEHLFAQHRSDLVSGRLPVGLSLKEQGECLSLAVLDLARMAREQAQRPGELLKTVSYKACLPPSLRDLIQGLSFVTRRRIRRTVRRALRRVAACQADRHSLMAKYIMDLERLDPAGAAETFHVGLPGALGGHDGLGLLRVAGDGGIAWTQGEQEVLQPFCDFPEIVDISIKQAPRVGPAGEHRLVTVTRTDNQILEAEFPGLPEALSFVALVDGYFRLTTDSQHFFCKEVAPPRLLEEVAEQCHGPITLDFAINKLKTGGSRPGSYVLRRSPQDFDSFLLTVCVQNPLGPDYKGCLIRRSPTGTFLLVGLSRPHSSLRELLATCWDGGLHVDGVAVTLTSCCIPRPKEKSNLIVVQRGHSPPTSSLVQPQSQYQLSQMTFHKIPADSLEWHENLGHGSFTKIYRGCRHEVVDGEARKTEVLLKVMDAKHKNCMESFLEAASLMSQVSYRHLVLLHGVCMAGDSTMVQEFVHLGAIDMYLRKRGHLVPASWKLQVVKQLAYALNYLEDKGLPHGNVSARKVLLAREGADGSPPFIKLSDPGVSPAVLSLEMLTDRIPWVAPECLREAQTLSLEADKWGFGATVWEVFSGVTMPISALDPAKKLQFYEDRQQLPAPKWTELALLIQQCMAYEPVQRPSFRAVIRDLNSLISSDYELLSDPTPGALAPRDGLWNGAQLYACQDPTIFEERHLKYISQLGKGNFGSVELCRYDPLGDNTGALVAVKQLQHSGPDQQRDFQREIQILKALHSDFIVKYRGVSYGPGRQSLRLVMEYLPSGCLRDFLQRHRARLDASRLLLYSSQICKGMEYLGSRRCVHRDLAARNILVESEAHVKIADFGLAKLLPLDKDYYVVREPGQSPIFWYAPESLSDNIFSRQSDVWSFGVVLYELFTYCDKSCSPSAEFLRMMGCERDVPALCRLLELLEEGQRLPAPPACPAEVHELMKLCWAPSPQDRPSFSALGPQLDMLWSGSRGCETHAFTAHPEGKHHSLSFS
The description is as above. Format: biochemical. The conditions noted are these: inhibitor concentration 0.01 μM. The procedure: as §2

The target in test [19] is T19, PDGFRβ (Homo sapiens, UniProt P09619).
T19 construct: purchased Carna Biosciences
The description is as above. Format: biochemical. Particulars: inhibitor concentration 0.01 μM. As for the experimental part:
as §2

The target in test [20] is T20, PDGFRα (Homo sapiens, UniProt P16234).
T20 construct: purchased Carna Biosciences
The test is described as above. Format: biochemical. Particulars: inhibitor concentration 0.01 μM. As for the experimental part: as §2

In test [21] the test system is breast cancer cell line T-47D. Kind of test: Cell growth assay with breast cancer cell line T-47D. The conditions noted are these: T-47D cells, PrestoBlue Cell Viability reagent, read-out: IC50 inhibition of cell growth. It counts as cell-based. The procedure: […] of the complete medium was then gently dispersed over the surface of the cell layer for several times. The cell concentration was adjusted to 1×10^4 cells/mL with the complete medium. A 100 μL aliquot of the cell suspension was added to the well of a 96-well plate, and the plate was incubated overnight at 37° C. under 5% CO2 with saturated humidity. On the next day, the medium in each well was aspirated and replaced with a 100 μL aliquot of pre-warmed complete medium at 37° C. in the presence or absence of the test compounds at various concentrations from 0-100 μM. The test compounds were dissolved in DMSO, and the final DMSO concentration in the cell culture was no more than 1%. The plate was incubated for 72 hours at 37° C. under 5% CO2 with saturated humidity. At end of the cell culture a 10 μL aliquot of PrestoBlue® Cell Viability reagent (ThermoFisher Scientific) was added into the well and the plate was incubated at 37° C. for 30 min. The absorption at 570 and 600 nm were measured with a SpectraMax Microplate reader (Molecular Devices), The absorbance at […] was normalized to that at 600 nm.

Read-outs that look alike come from different tables or passages of the source.

T17 sequence (P09769 whole entry): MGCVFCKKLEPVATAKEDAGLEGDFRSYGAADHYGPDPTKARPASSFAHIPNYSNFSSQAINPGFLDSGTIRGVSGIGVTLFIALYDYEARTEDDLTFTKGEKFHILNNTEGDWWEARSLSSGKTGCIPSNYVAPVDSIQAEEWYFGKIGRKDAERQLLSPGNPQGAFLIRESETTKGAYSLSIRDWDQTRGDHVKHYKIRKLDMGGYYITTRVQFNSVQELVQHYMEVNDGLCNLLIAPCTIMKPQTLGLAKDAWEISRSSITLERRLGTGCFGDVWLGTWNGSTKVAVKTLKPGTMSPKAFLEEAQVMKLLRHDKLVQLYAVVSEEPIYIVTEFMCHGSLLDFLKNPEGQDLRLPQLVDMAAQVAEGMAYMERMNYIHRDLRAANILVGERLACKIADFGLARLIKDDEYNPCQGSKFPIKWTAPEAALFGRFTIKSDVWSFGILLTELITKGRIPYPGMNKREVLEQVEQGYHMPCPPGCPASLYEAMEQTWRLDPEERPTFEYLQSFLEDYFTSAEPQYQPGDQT
T12 sequence (P04049 whole entry): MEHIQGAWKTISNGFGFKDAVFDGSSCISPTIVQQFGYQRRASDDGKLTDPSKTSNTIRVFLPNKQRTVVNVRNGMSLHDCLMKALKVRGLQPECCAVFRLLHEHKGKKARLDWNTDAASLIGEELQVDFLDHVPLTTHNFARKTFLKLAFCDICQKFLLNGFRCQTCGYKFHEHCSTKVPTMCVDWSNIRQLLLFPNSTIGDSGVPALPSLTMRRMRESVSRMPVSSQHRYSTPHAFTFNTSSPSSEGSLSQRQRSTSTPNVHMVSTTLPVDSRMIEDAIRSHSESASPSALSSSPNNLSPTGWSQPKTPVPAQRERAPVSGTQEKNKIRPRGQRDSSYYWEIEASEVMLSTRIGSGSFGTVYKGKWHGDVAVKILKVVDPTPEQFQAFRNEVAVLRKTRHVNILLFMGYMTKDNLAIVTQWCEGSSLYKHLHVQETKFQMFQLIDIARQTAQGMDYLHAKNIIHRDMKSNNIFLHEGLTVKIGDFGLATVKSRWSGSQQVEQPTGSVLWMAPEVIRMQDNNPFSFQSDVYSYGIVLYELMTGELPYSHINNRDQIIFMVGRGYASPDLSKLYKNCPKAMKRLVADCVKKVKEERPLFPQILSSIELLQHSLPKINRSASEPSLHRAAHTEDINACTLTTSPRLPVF
T11 sequence (Q13882 whole entry): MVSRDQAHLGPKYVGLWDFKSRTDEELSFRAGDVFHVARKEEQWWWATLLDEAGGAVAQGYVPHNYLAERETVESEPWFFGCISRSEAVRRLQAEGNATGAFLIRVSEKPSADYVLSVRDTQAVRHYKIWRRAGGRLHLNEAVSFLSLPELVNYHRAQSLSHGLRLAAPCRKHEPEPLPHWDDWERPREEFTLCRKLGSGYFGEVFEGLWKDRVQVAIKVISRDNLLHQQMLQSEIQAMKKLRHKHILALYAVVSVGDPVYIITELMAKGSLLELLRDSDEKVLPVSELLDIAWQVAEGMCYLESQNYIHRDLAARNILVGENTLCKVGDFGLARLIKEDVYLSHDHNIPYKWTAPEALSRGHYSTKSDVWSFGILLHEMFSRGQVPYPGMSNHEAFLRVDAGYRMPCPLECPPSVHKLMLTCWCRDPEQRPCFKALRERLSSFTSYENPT
T20 sequence (P16234 24-1089): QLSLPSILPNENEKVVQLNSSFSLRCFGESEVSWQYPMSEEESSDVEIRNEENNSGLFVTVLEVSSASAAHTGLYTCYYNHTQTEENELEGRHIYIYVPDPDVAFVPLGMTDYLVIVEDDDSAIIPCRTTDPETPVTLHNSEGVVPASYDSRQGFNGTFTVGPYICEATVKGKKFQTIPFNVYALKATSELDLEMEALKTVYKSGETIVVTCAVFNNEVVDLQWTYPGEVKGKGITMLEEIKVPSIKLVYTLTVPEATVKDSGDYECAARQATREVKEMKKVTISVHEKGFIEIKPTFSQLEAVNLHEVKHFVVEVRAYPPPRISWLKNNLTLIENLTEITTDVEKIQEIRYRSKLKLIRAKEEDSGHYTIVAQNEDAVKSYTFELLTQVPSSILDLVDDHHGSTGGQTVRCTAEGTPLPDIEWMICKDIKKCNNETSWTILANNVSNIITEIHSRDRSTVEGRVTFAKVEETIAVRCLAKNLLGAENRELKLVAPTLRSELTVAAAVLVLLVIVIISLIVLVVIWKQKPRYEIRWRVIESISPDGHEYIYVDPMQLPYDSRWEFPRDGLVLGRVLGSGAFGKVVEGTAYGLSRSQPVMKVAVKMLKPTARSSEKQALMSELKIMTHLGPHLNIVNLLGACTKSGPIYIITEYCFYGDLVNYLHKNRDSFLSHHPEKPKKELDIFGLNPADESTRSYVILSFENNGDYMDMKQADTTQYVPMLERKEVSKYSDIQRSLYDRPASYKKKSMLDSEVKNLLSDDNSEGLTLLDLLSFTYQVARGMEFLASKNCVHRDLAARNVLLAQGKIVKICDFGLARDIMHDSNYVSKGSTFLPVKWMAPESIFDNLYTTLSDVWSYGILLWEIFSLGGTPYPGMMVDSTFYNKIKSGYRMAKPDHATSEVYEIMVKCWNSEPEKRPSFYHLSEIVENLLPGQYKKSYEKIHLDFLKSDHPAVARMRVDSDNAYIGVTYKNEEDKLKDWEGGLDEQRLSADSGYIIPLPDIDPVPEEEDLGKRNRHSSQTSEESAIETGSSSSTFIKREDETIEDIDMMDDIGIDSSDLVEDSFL
T19 sequence (P09619 33-1106): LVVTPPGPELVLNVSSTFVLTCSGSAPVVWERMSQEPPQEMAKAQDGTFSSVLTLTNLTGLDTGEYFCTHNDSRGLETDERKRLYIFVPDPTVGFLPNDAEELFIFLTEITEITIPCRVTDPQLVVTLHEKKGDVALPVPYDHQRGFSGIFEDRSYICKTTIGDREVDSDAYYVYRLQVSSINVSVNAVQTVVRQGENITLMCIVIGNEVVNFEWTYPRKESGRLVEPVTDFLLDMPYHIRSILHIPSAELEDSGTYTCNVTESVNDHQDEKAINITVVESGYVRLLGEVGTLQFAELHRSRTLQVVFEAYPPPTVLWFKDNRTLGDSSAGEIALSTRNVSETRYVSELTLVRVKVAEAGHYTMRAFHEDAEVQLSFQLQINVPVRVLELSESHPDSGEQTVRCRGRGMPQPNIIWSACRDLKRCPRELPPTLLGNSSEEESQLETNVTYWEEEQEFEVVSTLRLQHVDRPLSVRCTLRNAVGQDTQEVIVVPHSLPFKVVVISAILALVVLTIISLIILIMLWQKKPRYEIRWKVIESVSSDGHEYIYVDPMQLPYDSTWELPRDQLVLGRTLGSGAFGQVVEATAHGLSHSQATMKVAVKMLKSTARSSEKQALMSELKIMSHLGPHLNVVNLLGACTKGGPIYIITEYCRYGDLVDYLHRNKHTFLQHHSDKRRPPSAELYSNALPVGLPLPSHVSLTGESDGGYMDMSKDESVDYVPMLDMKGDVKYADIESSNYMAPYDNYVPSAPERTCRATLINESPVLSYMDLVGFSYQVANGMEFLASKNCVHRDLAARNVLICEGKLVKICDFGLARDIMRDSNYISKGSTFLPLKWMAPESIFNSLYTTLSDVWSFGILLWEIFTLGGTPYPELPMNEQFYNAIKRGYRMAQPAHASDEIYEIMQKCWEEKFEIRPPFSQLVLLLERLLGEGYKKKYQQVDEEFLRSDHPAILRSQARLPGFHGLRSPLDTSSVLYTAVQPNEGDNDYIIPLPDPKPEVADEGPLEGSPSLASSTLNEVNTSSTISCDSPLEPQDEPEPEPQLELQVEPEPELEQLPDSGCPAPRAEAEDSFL
T8 sequence (P10721 26-976 V560G): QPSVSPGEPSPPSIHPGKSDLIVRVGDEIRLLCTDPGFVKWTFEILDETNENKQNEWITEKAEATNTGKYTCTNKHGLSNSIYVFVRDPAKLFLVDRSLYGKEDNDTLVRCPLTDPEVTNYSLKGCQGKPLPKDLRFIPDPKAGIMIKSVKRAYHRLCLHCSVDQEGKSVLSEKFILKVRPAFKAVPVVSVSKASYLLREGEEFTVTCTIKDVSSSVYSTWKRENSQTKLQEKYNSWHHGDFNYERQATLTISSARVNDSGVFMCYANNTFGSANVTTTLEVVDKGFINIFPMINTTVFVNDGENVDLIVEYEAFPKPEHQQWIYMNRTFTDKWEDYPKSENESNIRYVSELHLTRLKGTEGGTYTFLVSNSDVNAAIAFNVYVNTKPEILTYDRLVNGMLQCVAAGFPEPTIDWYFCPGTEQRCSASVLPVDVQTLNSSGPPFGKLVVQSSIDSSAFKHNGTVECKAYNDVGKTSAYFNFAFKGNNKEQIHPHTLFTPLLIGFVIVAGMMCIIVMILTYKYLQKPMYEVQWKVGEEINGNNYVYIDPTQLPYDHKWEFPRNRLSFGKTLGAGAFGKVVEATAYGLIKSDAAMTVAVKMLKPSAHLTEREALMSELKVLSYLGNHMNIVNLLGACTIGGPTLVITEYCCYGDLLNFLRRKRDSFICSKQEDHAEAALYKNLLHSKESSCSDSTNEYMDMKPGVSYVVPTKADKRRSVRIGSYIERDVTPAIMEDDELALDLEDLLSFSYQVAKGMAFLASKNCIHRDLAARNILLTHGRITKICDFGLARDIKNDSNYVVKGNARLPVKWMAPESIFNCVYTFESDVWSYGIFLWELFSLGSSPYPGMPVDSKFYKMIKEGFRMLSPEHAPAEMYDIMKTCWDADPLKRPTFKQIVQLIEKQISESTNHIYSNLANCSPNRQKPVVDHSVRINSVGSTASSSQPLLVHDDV
T15 sequence (P10721 26-976): as the sequence (P10721 26-976 V560G) above, with G535V counted along it
T1 sequence (P16234 24-1089 D842V): as the sequence (P16234 24-1089) above, with D819V counted along it
T3 sequence (P16234 24-1089 V561D): as the sequence (P16234 24-1089) above, with V538D counted along it
T2 sequence (P16234 24-1089 T674I): as the sequence (P16234 24-1089) above, with T651I counted along it
T9 sequence (P10721 26-976 T670I): as the sequence (P10721 26-976 V560G) above, with G535V, T645I counted along it
T5 sequence (P10721 26-976 D816V): as the sequence (P10721 26-976 V560G) above, with G535V, D791V counted along it

Regarding `C/C=C/S(=O)(=O)Nc1ccc(F)c(C(=O)c2c[nH]c3ncc(-c4ccc(Cl)cc4)cc23)c1F` [200-93a], the inhibition at 0.01 µM in test [1], in [2], in [3], in test [4], in [5] and in test [6] was more than 30% each time. The inhibition at 0.01 µM in [7], in [8], in [9], in [10], in test [11] and in test [12] was more than 30% each time. Further, the inhibition at 0.01 µM in test [13], in test [14], in [15], in test [16], in test [17] and in test [18] was more than 30% in each case. The inhibition at 0.01 µM in [19] and in test [20] was more than 20% in each case. The IC50 (in general, the concentration that gives 50% inhibition) in test [21] (72 hours) is more than 20 µM.
On to `COCCCS(=O)(=O)Nc1ccc(F)c(C(=O)c2c[nH]c3ncc(-c4ccc(Cl)cc4)cc23)c1F` [200-123, N-[3-[5-(4-chlorophenyl)pyrrolo[2,3-b]pyridine-3-carbonyl]-2,4-difluoro-phenyl]-3-methoxypropane-1-sulfonamide], for which the inhibition (usually the drop in the measured response relative to a control, in per cent) at 0.01 µM is less than 20% in [1]; less than 20% in [2]; less than 20% in [3]; less than 20% in test [4]; less than 20% in test [5]; more than 20% in test [6]. The inhibition at 0.01 µM in test [7] is less than 20%; in test [8], less than 20%; in [9] it was less than 20%; in test [10] it was less than 20%; in [11] it was more than 20%; in [12] it was more than 20%. Moreover, the inhibition at 0.01 µM in test [13] was more than 20%; in [14], more than 20%; in test [15], less than 20%; in [16], less than 20%; in test [17], less than 20%; in test [18] it was less than 20%. Further, the inhibition at 0.01 µM in test [19] and in test [20] was less than 20% in each case. For the same compound, in test [21] (Homo sapiens, T47D, 72 h), the IC50 was less than 20 µM.
With `COCCS(=O)(=O)Nc1ccc(F)c(C(=O)c2c[nH]c3ncc(-c4ccc(Cl)cc4)cc23)c1F` [200-139, N-[3-[5-(4-chlorophenyl)pyrrolo[2,3-b]pyridine-3-carbonyl]-2,4-difluorophenyl]-2-methoxyethanesulfonamide], the inhibition at 0.01 µM in test [1] is less than 20%; in [2], less than 20%; in test [3] it was less than 20%; in test [4], less than 20%; in test [5] it was less than 20%; in test [6], more than 20%. Besides, the inhibition at 0.01 µM is less than 20% in test [7]; less than 20% in test [8]; less than 20% in test [9]; less than 20% in test [10]; more than 20% in [11]; more than 20% in test [12]. The inhibition at 0.01 µM is less than 20% in test [13]; more than 20% in [14]; less than 20% in test [15]; less than 20% in test [16]; less than 20% in test [17]; less than 20% in test [18]. Besides, the inhibition at 0.01 µM is less than 20% in test [19] and more than 20% in [20]. Also, the IC50 in test [21] (Homo sapiens, T47D, 72 h) is less than 20 µM.
For `O=C(c1c(F)ccc(NS(=O)(=O)CCO)c1F)c1c[nH]c2ncc(-c3ccc(Cl)cc3)cc12` [200-149, N-[3-[5-(4-chlorophenyl)pyrrolo[2,3-b]pyridine-3-carbonyl]-2,4-difluorophenyl]-2-hydroxyethanesulfonamide], in test [21] (Homo sapiens, T47D, 72 hours), the concentration for half-maximal inhibition (IC50) was less than 20 µM.
